Consider two compounds from US10925867B2, “Immunotherapeutic dosing regimens comprising pomalidomide and an anti-CS1 antibody for treating cancer” (Bristol-Myers Squibb Company, priority 2015, dated 2021).

What is called TGI is the reduction of tumour growth relative to the control group.

Data set [1] concerns OPM2 xenograft. The note with it: for Median Days to Target Size / LCK / CR (complete tumor regressions) / PR (partial tumor regressions) / TGI: Study #2; for Median Days to Target Size: ELO 0.5 mg/kg IP 2QW from d12, POM 5 mg/kg PO QD × 5 d12, 19, DEX 5 mg/kg IP QD × 7 from d12, target size 1 gm; for LCK / CR (complete tumor regressions) / PR (partial tumor regressions) / TGI: ELO 0.5, POM 5, DEX 5 mg/kg; for CR (complete tumor regressions) / PR (partial tumor regressions): mice of 8; for TGI: versus untreated mice. On the procedure:
FIGS. 4A-B. Study #2 (OPM2-16), Antitumor Activity, Elotuzumab Efficacy in Combination with Pomalidomide and Dexamethasone in OPM2 Multiple Myeloma Xenograft. Mice with established OPM2 xenograft tumors were randomized into 2 groups with 8 mice per group and were administered one of the following sets of regimens: (A) Control group was left untreated (filled circles), elotuzumab (0.5 mg/kg, twice weekly IP for 6 doses starting d12, open circles), dexamethasone (5 mg/kg, daily IP for 7 doses starting on d12, open triangles), elotuzumab (0.5 mg/kg, twice weekly IP for 8 doses starting d12) plus dexamethasone combination (filled triangles), pomalidomide (5 mg/kg, daily for 5 days orally starting on d12 and then again for 5 days on d19) plus dexamethasone combination (dashes); or (B) Control group was left untreated (filled circles), elotuzumab (0.5 mg/kg, twice weekly IP for 6 doses starting d12, open circles), pomalidomide (5 mg/kg, daily for 5 days orally starting on d12 and then again for 5 days on d19, open squares), elotuzumab (0.5 mg/kg, twice weekly IP for 8 doses starting d12) plus pomalidomide combination (filled squares), elotuzumab (0.5 mg/kg, twice weekly IP for 8 doses starting d12) plus pomalidomide plus dexamethasone combination (x's). The data are presented as means+/−standard deviation.
FIGS. 5A-H. Study #2 (OPM2-16), Anti Tumor Activity of Elotuzumab, Pomalidomide, and Dexamethasone as Single Agent and Combination Treatment in OPM2 Multiple Myeloma Xenograft tumor model. Mice with established OPM2 xenograft tumors were randomized into groups with 8 mice per group and were administered one of the following regimens: (A): untreated (control); (B): elotuzumab; (C): pomalidomide; (D): dexamethasone; (E): elotuzumab plus pomalidomide; (F): elotuzumab plus dexamethasone; (G): pomalidomide plus dexamethasone; or (H): elotuzumab plus pomalidomide plus dexamethasone. Data represent tumor weight measured in individual animals. Dosing route and regimen are described in FIG. 4 and Example 1.
(§1) Animals: All mice were obtained from Taconic Biosciences (Germantown, N.Y.), and maintained in ammonia-free environment in a defined and pathogen-free colony. All animal procedures were approved by the Bristol-Myers Squibb (BMS) Institutional Animal Care and Use Committee. The animal care and use program at BMS has been fully accredited by the Association for Assessment and Accreditation of Laboratory Animal Care International (AAALAC).
(§2) Animal Models: The human tumor xenograft OPM2 was grown in IcrTac scid mice (ICRPrkdcscid). Treated animals were checked daily for treatment related toxicity/mortality. Each group of animals was weighed before the initiation of treatment (Wt1) and then weighed again following the last treatment dose (Wt2). The difference in body weight (Wt2-Wt1) provides a measure of treatment-related toxicity. Additional weights were recorded at each measurement date to monitor toxicity.
(§3) Tumor response was determined by measurement of tumors with a caliper twice a week, until the tumors reached a predetermined “target” size of 1 gm. Tumor weights (mg) were estimated from the formula: Tumor weight=(length×width2)/2.
(§4) Tumor response end-point was expressed in terms of tumor cell kill and tumor growth inhibition. Tumor growth delay was defined as the difference in time (days) required for the treated tumors (T) to reach a predetermined target size compared to those in the control group (C). For this purpose tumor weight of a group was expressed as […] tumor weight (MTW).
(§5) Tumor cell kill was expressed in terms of log cell kill (LCK), represented by the equation LCK=[…] where tumor volume doubling time (TVDT) was first calculated with the formula: TVDT=Median time (days) for control tumor weight to reach target size−Median time (days) for control tumor weight to reach half the target size.

Data set [2] has as its system OPM2 xenograft. Kind of data set: OPM2 xenograft studies taken together (summary and conclusion). Format: in vivo, mice. The note with it: elotuzumab 0.5 mg/kg, pomalidomide 5 mg/kg, dexamethasone 5 mg/kg. On the procedure:
The present invention is based on data from preclinical studies conducted in female SCID mice (6-8 weeks old) that were implanted SC (subcutaneous implantation) with the multiple myeloma cell line OPM-2 which were treated with Elotuzumab IP (intraperitoneal administration) alone, treated with pomalidomide alone, treated with dexamethasone alone, or treated in combination with each other. […] All treatments were well tolerated, with no significant changes in body weights or overt signs of clinical toxicity.
Dosing regimen for dexamethasone was QD×7.

For data set [3] the following is noted: 10 and 20 mg/kg in combination with lenalidomide; cited from earlier work.
Data set [4] relates to OPM2 xenograft. As to conditions: for Median Days to Target Size / LCK / CR (complete tumor regressions) / PR (partial tumor regressions) / TGI: Study #1; for Median Days to Target Size: ELO 0.5 mg/kg IP 2QW from d16, POM 5 mg/kg PO QD × 5 d16, 23, DEX 5 mg/kg IP QD × 7 from d16, target size 1 gm; for LCK / CR (complete tumor regressions) / PR (partial tumor regressions) / TGI: ELO 0.5, POM 5, DEX 5 mg/kg; for CR (complete tumor regressions) / PR (partial tumor regressions): mice of 8; for TGI: versus untreated mice; for Max % Weight Loss: mouse, in vivo. On the procedure:
Mice with established OPM2 xenograft tumors were randomized into 2 groups with 8 mice per group and were administered one of the following sets of regimens: (A) Control group was left untreated (filled circles), elotuzumab (0.5 mg/kg, twice weekly IP for 7 doses starting d16, open circles), dexamethasone (5 mg/kg, daily IP for 7 doses starting on d16, open triangles), elotuzumab plus dexamethasone combination (filled triangles), pomalidomide (5 mg/kg, daily for 5 days orally starting on d16 and then again for 5 days on d23) plus dexamethasone combination (dashes); or (B) Control group was left untreated (filled circles), elotuzumab (0.5 mg/kg, twice weekly IP for 7 doses starting d16, open circles), pomalidomide (5 mg/kg, daily for 5 days orally starting on d16 and then again for 5 days on d23, open squares), elotuzumab (0.5 mg/kg, twice weekly IP for 10 doses starting d16) plus pomalidomide combination (filled squares), elotuzumab (10 doses) plus pomalidomide plus dexamethasone combination (x's). The data are presented as means+/−standard deviation.
Mice with established OPM2 xenograft tumors were randomized into groups with 8 mice per group and were administered one of the following regimens: (A): untreated (control); (B): elotuzumab; (C): pomalidomide; (D): dexamethasone; (E): elotuzumab plus pomalidomide; (F): elotuzumab plus dexamethasone; (G): pomalidomide plus dexamethasone; or (H): elotuzumab plus pomalidomide plus dexamethasone. Data represent tumor weight measured in individual animals. Dosing route and regimen are described in FIG. 2 and Example 1.
as §1, §2, §3, §4, §5

Read-outs that look alike come from different tables or passages of the source.

“Elotuzumab: humanized monoclonal IgG1 antibody directed against CS-1; VL SEQ ID NO:1, VH SEQ ID NO:2”: in the data set on OPM2 xenograft [1], the “Median Days to Target Size” value is 24.0 days, the LCK came out at 0.47, the “CR (complete tumor regressions)” value was 0/8 and the “PR (partial tumor regressions)” value is 0/8. Besides, the TGI in the data set with OPM2 xenograft [1] is given as 57.7%. Also, in the data set with OPM2 xenograft [2], the “efficacy / effect on tumor growth (in words)” value is reported as “inhibited tumor growth”. Also, the “steady-state Cmin” value in data set [3] is reported as “above 70 μg/mL”. In the data set with OPM2 xenograft [4], the “Median Days to Target Size” value was 35.0 days, the LCK was 0.61, the “CR (complete tumor regressions)” value is listed as 0/8 and the “PR (partial tumor regressions)” value was 0/8. In addition, in the data set with OPM2 xenograft [4], the TGI stood at 70.3% and the “Max % Weight Loss” value was −2.2%.
In the case of `Nc1cccc2c1C(=O)N(C1CCC(=O)NC1=O)C2=O` (racemic) [Pomalidomide, (RS)-4-amino-2-(2,6-dioxo-piperidin-3-yl)-isoindole-1,3-dione], in the data set with OPM2 xenograft [1], the “Median Days to Target Size” value was found to be 22.5 days, the LCK is 0.33, the “CR (complete tumor regressions)” value is listed as 0/8 and the “PR (partial tumor regressions)” value is 0/8. The TGI in the data set on OPM2 xenograft [1] is on record as 41.4%. The “Max % Weight Loss” value with OPM2 xenograft [1] (mouse, in vivo) is listed as −1.1%. In addition, in the data set with OPM2 xenograft [2], the “efficacy / effect on tumor growth (in words)” value was “inhibited tumor growth”. In the data set with OPM2 xenograft [4], the “Median Days to Target Size” value came out at 29.8 days, the LCK came out at 0.26, the “CR (complete tumor regressions)” value is listed as 0/8 and the “PR (partial tumor regressions)” value was 0/8. Also, in the data set with OPM2 xenograft [4], the TGI is 52% and the “Max % Weight Loss” value is reported as −1.1%.
